Results taken from patent US20250319115A1, “Compositions and Methods for Modulating Cytokines” (Flagship Pioneering Innovations VII, LLC, priority 2022, published 2025).

B1: SEQ ID NO: 6517: target protein of the Sequence Listing, secreted peptide (peptide, listed as Homo sapiens)
chain: VALSLLTSQGRQRRAGPSTAFAALPATVATFSAMTESESLRTSRHADTALARVRRGAKFRGQARTRYCARARSHRFTPPSGA
B2: SEQ ID NO: 5631: target protein of the Sequence Listing, secreted peptide (peptide, listed as Homo sapiens)
chain: MMAQKSKFRVLFMSDPHGTAMPLTSAILESSRASLAAKQEDKCFTDIRNLKWKHFLEHTKQPP
B3: SEQ ID NO: 4566: target protein of the Sequence Listing, secreted peptide (peptide, listed as Homo sapiens)
chain: LRPRSAAFAPRYTRLVMRRSSRSFRLQCTGFPSSSAQSISAHLSNSMPSSLLTISRCPGMFAVRCPL
B4: SEQ ID NO: 5537: target protein of the Sequence Listing, secreted peptide (peptide, listed as Homo sapiens)
chain: MQRLPAAFFRSFAAQGLGESVHINTPTSLSLRGRPFISSSGPGARARVTCAPCLHAARILCCFWRGLHR
B5: SEQ ID NO: 5931: target protein of the Sequence Listing, secreted peptide (peptide, listed as Homo sapiens)
chain: MSCGSRRGPSLASSLAWLQLQSGTRPFCSSSPPYFLSHGRRIPFSHPRKESALRATKEPRTHRTNTSLADLPSPAPAHL
B6: SEQ ID NO: 3169: target protein of the Sequence Listing, secreted peptide (peptide, listed as Homo sapiens)
chain: MCHKGWHGPGVPHHVAFTPCKARLRPATQCQAHSSPRRKMVQAGSIPLAAASGRLCLTHAGWWRGAS
B7: SEQ ID NO: 3494: target protein of the Sequence Listing, secreted peptide (peptide, listed as Homo sapiens)
chain: MSYLPTNPPGSILTCWLGVSLGSHRSARGGSTIYGRLLPRRKDVWFSQAKDVPKYRGLLYLQS

How the values were obtained:
[1] = system: CD3/CD28 (TransAct) activated PBMCs; experiment: PBMC cytokine release by Cytometric BeadArray, Inhibition format (peptide with anti-CD3/CD28 T-cell activator); format: cell-based, human; design: key to Inhibition by Analyte: IL-1b / Inhibition by Analyte: IL-2 / Inhibition by Analyte: TNF / Inhibition by Analyte: IP-10 / Inhibition by Analyte: IL-10: X = a hit with significant activation or inhibition of relevant cytokine release
Procedure: (§1) Peripheral Blood Mononuclear Cells were seeded+/−the T-cell activator […] and +/−peptides for 24-48 hours. Cytokines were measured from the supernatant after incubation by CBA Cytometer.
(§2) Thawing PBMCs: PBMCs were thawed by pre-warming TexMACS media (Miltenyi Biotech) in 20 ml aliquots-1-50 ml conical per donor. After the media was warmed to 37° C., cells were removed from liquid nitrogen and brought to the tissue culture hood. For each donor, 1 ml of media from the warmed aliquot was added to the frozen vial and mixed up and down. The media plus thawed cells were then added back to the 50 ml conical. This was repeated until all the cells were thawed and added to the 50 ml tube. Continue with other donors if used. Spin cells for 5 min at 400×g. Supernatant was aspirated and cells resuspended at ˜10*10^6 cells/ml (see vial for cell number).
(§3) PBMC Plating: Frozen PBMCs from normal, healthy, human volunteers (StemCell Technologies) were thawed and plated at 250,000 cells/well. After PBMCs were thawed and resuspended at […], cells were then counted (Countess III, Thermo Scientific) and adjusted based on counts to […]. Take the number of PBMCs determined by number of wells for the experiment, for example, 10 wells would need 2.5*10^6 cells total or 0.250 ml. The cells needed for the experiment are then transferred to another conical tube. Warmed TexMACS media is added so that the final concentration is 250,000 cells/190 ul media, for example, 10 wells would need 1.9 ml (190 ul×10 wells) of media total minus 0.250 ml of cells (1.9 ml-0.250 ml) or 1.65 ml of media added to the 0.250 ml of cells. Add 190 ul of cells plus media to the 96 well U-bottom plate. Place in incubator until dilutions are made and ready.
(§4) Peptide Dilutions: Ideally, all peptides should be at a starting concentration of at least 10 mM, especially for those in DMSO (ATCC) to reach a final concentration of 1 uM (H2O) or 0.5 uM (DMSO). Dilutions of all test articles should be made at 20× the final concentration, for example, a final concentration of 1 uM peptide would need to be made at 20 uM.
(§5) Reagent Dilution: Dilutions are made in TexMACS media, enough for 10 ul/well in triplicate (30 ul of a 20×). Activator—CD3/CD28 (TransAct; Miltenyi Biotech) or cytokine will be at 21× and added after the 45-minute incubation with peptides. Be sure to include relevant controls—Positive: TransAct+Cells, Negative: Vehicle+Cells. Dilutions should also be made in a ultra-low binding plate (Corning).
(§6) Assay Procedure: Peptide Treatment: Start assay by thawing the cells and plating in a 96 well, U-bottom tissue culture plate (Corning) as described above. Cell plates are placed in a tissue culture incubator (5% CO2, 37° C.). While cells are in the incubator, start making dilutions (optimally 1 hr or less) as described above. Cell plates are removed from the incubator and 10 ul of the 20× dilutions are added to the relevant wells. After the addition of inhibitors, cell plates are placed in the tissue culture incubator for 45 minutes. The plates are removed from the incubator and 10 ul of 21× TransAct is added to the relevant wells*. Plates are then returned to the incubator and incubated for 24 hours. After 24 hours, plates are spun for 5 minutes at 400×g.
(§7) * Activation: This assay can be run in two different formats—Activation and Inhibition. The procedure is the same except no TransAct is needed in the peptide wells for Activation. TransAct is only needed in the control wells. The purpose of this procedure is to determine the possible response from peptides alone.
(§8) Cytometric BeadArray (CBA): After the spin, supernatants (˜150 ul) are transferred to a new, ultra-low binding U-bottom plate. Supernatants are then frozen at −20° C. until thawed for CBA (BD) to determine levels of human IL-2, TNFα, IL-1b, IP-10, IL-10, and IFNg. CBA was run according to the manufacturers protocol.

[2] = system: Peripheral Blood Mononuclear Cells; experiment: PBMC cytokine release by Cytometric BeadArray, Activation format (peptide applied to PBMCs alone); format: cell-based, human; design: key: X = a hit with significant activation or inhibition of relevant cytokine release; details: 24 hours, supernatant CBA
Procedure: as §1, §2, §3, §4, §5, §6, §7, §8

[3] = peptide applied with anti-CD3/CD28 T-cell activator, 24 hours, supernatant CBA

Molecule | Inhibition by Analyte: IL-1b [1, 3] | Inhibition by Analyte: TNF [1, 3] | Activation by Analyte: IP-10 [2] | further results
SEQ ID NO: 1184: target protein of the Sequence Listing, synthesized peptide (LEMEGGCSPPIPHAGHRWKCQTVRVHA; listed as Homo sapiens) | X | X |  | Inhibition by Analyte: IL-2 [1, 3]: X; Inhibition by Analyte: IP-10 [1, 3]: X
SEQ ID NO: 3462: target protein of the Sequence Listing, secreted peptide (METSCSLWVSSELFCRSVKVFFCLLALHLSALPHSSWTQDKNLGLAGMVELK; listed as Homo sapiens) |  |  | X | 
SEQ ID NO: 3585: target protein, anti-inflammatory cytokine modulator, secreted peptide (VAEPRRGHLKAALASLGGAAPAAATNGSPPLFK; listed as Homo sapiens) | X | X |  | release of TNF-alpha from activated PBMCs ([1]; CD3/CD28 (TransAct) activated PBMCs, FIG. 7): significantly blocks; release of IL-1b from activated PBMCs ([1]; CD3/CD28 (TransAct) activated PBMCs, FIG. 8): does not block; Inhibition by Analyte: IL-2 [1, 3]: X
SEQ ID NO: 4174: target protein of the Sequence Listing, secreted peptide (MRSPLSASALLLWSSSVARAFSSPSLLMAVPSPTCSRY; listed as Homo sapiens) | X | X |  | Inhibition by Analyte: IL-10 [1, 3]: X; Inhibition by Analyte: IP-10 [1, 3]: X
SEQ ID NO: 4615: target protein of the Sequence Listing, secreted peptide (MTAFGLGIPTFLVMQPSGSQPRFPALTQNGVALVRTPLTSVYLRVRICRVLGPRSQPS; listed as Homo sapiens) | X | X | X | Activation by Analyte: IL-10 [2]: X
SEQ ID NO: 5627: target protein of the Sequence Listing, secreted peptide (MSEVATLLFSQTALASLESVHPAGHKLWMRNLRQVTSP; listed as Homo sapiens) |  | X |  | Inhibition by Analyte: IL-2 [1, 3]: X
SEQ ID NO: 5730: target protein of the Sequence Listing, secreted peptide (MVSHRKDWRRVNLRFSSCLLLSICLDDKPSADELCFWTDHGRSQLTCPSLGVSQGHARSS; listed as Homo sapiens) |  |  | X | 
SEQ ID NO: 5843: target protein of the Sequence Listing, secreted peptide (MGGKSWLFFYSLVFCALLPLPRREDPFKLF; listed as Homo sapiens) | X |  |  | 
SEQ ID NO: 5848: target protein of the Sequence Listing, secreted peptide (MARPLSLAAAGAPDLLFTALCSLLIEAQPLRPFDLQVLGDPQPRARTP; listed as Homo sapiens) |  |  |  | Activation by Analyte: IL-2 [2]: X
SEQ ID NO: 5862: target protein of the Sequence Listing, secreted peptide (MESRTLLLLFSGAVALIQTWADYNYNQGRNDLIFTLQLWKRQ; listed as Homo sapiens) | X |  |  | 
SEQ ID NO: 6295: target protein of the Sequence Listing, secreted peptide (MWWKTPCWWTPSTTATSSSAEARSCGRLLKSMAG; listed as Homo sapiens) |  |  | X | 
SEQ ID NO: 6518: target protein of the Sequence Listing, secreted peptide (MSFDHPEKNGPWPADPINLPSHG; listed as Homo sapiens) |  | X |  | Inhibition by Analyte: IL-2 [1, 3]: X
B1 |  |  | X | 
B2 |  |  | X | 
B3 |  |  | X | 
B4 |  |  | X | 
B5 |  |  |  | Activation by Analyte: IL-1b [2]: X
B6 |  |  | X | 
B7 |  |  | X | 
